Consider three compounds from patent US20140194477A1, “KINASE PROTEIN BINDING INHIBITORS” (Roswell Park Cancer Institute, priority 2011, published 2014).

The subject of one data set is glioma and ovarian tumor. The note with it: literature report; cited from earlier work.
The next data set deals with IGFR kinase (Homo sapiens, UniProt P08069). The note with it: literature report; cited from earlier work.
Data set [1] concerns the target T1, FAK (Homo sapiens, UniProt Q05397). The conditions noted are these: literature report; cited from earlier work.
The test system of another data set is U87 cells. Description: Tumor growth in glioblastoma mouse model (subcutaneous U87 cells). The format is in vivo, mice. The conditions noted are these: C4 50 mg/kg IP. How it is done: (§1) Female SCID mice were purchased six weeks old and were maintained in an animal facility, and all experiments were performed in compliance with NIH animal use guidelines using IACUC protocol. The 2x10^6 U87 cells or GL261 cells were injected into mice subcutaneously. When tumor size reached 100 mm^3, drug was introduced by IP daily, 5 days per week for several weeks. Tumor diameters were measured with calipers and tumor volume in mm^3 was calculated using this formula: tumor volume=(width)^2×Length/2. At the end of the experiment, tumor weight and volume were determined. Tumor samples were collected for Western blotting and for immunohistochemical analysis. Endpoints of anti-tumor efficacy include: 1) differences in tumor size between treated and control animals at termination of the experiment (T/C % and T-C4anal/T-C4%) and 2) differences in blood vessel density and lymphatic vessel density. One hour following the last dose, tumor tissues were snap frozen and Erk1/2, Akt, FAK and VEGFR-3 phosphorylation, as well as total protein levels (to ensure equal loading), were determined ex vivo by Western blot. Tumor tissues were sectioned and stained for total and phosphorylated FAK and VEGFR-3 in addition to TUNEL staining (apoptosis), Ki67 (proliferation), CD31 (angiogenesis) and LYVE1 (lymphangiogenesis). Necropsy was performed to evaluate drug toxicity. Experiments were repeated at least in triplicate, and data were reported as mean ±standard error of the mean. An ANOVA or student's t-test was used as appropriate to compare data between groups. Statistical significance was determined at P<0.05.

A further data set has as its system DBTRG cells. Briefly: MTS/clonogenic antiproliferative and cell viability assay, DBTRG cells. The data set is classed as cell-based. The note with it: 72 hours, estimated from MTS and clonogenic assays.
A further data set relates to CD-1 mice. Description: 7-day multiple-dose MTD toxicologic study of Suprastin (C4), oral gavage, CD-1 mice. The format is in vivo. How it is done:
(§2) • A 7-day, multiple-dose maximum tolerated dose toxicologic study of the drug Suprastin (C4) was performed in CD-1 mice.
(§3) • The drug Suprastin (C4) was the test article. The chemical name for Suprastin is chloropyramine hydrochloride or N-[(4-chlorophenyl) methyl]-N[2-(dimethylamino) ethyl] pyridin-2-amine. The test article was prepared in sterile water. The test article was prepared by the sponsor and delivered to the study director prior to the study. The test article was stored in the refrigerator (4° C.), protected from light. • Control article:
(§4) The CD-1 [Hsd:ICR(CD-1)] albino mouse was used. The CD-1 mouse is conventionally used in toxicity tests to provide information on which human hazards can be judged, and is one of the choices of species preferred by regulatory agencies. Mice were obtained from Harlan (Frederick, Md.).
(§5) Mice were acclimated for 2 days prior to testing. 20 male and 20 female mice, nulliparous and non-pregnant, were used. Normal weight gain, appearance and behavior were factors used to select healthy mice for testing. Only naive animals were used. Mice weighed 23-33 grams (males) and 19-26 grams (females), and were in good health at the start of the study. Mice weighed 22-35 grams (males) and 18-26 grams (females) at the conclusion of the study.
(§6) Mice were randomly assigned to 4 experimental groups (controls, low-dose, medium-dose, and high-dose) consisting of 5 males and 5 females. Mice were identified via cage cards, tail markings, and ear punch. Mouse identification codes contained information regarding experimental group (C=control, L=low-dose, IVI=medium-dose, H=high-dose), sex (M−male, F−female), and animal number (1-5).
(§7) • A 7-day multiple-dose MTD toxicology study was performed.
(§8) • The test article Suprastin (C4) was prepared in sterile water and administered orally (PO) via orogastric gavage as a single daily dose on days 0-6 in the morning. The compound was diluted with the control article (sterile water) so as not to exceed a volume of […]. The test article (Suprastin) was stored in the refrigerator (4° C.) and allowed to come to room temperature prior to administration. Mice were randomly allocated into 4 groups (controls, low-dose, medium-dose, and high-dose) consisting of 5 males and 5 females. Dosages were calculated on a “per mouse” basis, not on a mg/kg basis. Mice in the low-dose group received the equivalent of a 75 mg/kg dose for a 20 g mouse (1.5 mg). Mice in the medium-dose group received the equivalent of a 150 mg/kg dose for a 20 g mouse (3 mg). Mice in the high-dose group received the equivalent of a 300 mg/kg dose for a 20 g mouse (6 mg). Mice in the control group received 100pL of the control article (sterile water). Groups received the following doses, drug concentrations, and gavage volumes, as outlined in Table 4: […]

Experiment in data set [2]: as above
The format is in vivo. The conditions noted are these: both sexes, CD-1, mouse, in vivo; oral gavage in mice, daily for 7 days. The protocol: as §2, §3, §4, §5, §6, §7, §8

The next data set deals with U-87 cells. Briefly: MTS/clonogenic antiproliferative and cell viability assay, U-87 cells. The format is cell-based. The conditions noted are these: Homo sapiens, U-87 MG, 72 hours, estimated from MTS and clonogenic assays.
Data set [3] concerns the target T1, FAK. Briefly: FAK Y397 phosphorylation. The format is biochemical. The note with it: various assays.
A further data set relates to GL261 cells. Description: Tumor growth in glioma syngeneic mouse model (subcutaneous GL261 cells). The format is in vivo, mice. The conditions noted are these: C4 50 mg/kg IP. How it is done:
as §1, with “Necropsy was performed to evaluate drug toxicity. Experiments were repeated at least in triplicate, and data were reported as mean ±standard error of the mean. An ANOVA or student's t-test was used as appropriate to compare data between groups.” left out

For data set [4] the following is noted: literature report; cited from earlier work.

T1 sequence (Q05397 whole entry): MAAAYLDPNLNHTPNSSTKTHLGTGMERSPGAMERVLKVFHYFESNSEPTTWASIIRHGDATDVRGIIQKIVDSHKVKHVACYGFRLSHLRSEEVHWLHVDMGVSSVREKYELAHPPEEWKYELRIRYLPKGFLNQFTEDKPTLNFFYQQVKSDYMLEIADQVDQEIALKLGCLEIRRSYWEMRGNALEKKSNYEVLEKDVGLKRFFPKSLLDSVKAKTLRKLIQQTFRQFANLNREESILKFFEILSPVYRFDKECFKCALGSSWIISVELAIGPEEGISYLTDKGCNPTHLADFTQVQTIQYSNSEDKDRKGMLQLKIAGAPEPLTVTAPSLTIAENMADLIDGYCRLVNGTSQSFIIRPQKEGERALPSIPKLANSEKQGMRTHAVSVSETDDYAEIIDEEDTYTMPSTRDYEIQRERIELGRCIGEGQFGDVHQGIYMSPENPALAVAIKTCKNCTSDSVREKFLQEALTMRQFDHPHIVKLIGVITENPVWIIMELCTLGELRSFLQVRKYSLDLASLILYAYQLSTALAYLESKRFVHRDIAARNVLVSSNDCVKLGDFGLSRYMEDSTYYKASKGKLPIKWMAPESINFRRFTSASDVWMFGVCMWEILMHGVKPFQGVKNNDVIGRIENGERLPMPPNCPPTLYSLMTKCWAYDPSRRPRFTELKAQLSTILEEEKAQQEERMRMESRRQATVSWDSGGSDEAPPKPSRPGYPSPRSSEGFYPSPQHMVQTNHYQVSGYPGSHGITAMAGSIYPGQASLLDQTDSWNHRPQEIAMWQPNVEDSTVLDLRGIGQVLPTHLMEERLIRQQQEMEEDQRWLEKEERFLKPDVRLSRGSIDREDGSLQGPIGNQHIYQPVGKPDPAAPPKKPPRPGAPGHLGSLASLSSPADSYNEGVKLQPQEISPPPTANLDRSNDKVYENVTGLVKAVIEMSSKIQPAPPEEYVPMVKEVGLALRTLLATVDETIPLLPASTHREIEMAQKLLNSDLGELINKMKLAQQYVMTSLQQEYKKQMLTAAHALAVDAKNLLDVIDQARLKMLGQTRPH
IGFR kinase, sequence (P08069 31-1367): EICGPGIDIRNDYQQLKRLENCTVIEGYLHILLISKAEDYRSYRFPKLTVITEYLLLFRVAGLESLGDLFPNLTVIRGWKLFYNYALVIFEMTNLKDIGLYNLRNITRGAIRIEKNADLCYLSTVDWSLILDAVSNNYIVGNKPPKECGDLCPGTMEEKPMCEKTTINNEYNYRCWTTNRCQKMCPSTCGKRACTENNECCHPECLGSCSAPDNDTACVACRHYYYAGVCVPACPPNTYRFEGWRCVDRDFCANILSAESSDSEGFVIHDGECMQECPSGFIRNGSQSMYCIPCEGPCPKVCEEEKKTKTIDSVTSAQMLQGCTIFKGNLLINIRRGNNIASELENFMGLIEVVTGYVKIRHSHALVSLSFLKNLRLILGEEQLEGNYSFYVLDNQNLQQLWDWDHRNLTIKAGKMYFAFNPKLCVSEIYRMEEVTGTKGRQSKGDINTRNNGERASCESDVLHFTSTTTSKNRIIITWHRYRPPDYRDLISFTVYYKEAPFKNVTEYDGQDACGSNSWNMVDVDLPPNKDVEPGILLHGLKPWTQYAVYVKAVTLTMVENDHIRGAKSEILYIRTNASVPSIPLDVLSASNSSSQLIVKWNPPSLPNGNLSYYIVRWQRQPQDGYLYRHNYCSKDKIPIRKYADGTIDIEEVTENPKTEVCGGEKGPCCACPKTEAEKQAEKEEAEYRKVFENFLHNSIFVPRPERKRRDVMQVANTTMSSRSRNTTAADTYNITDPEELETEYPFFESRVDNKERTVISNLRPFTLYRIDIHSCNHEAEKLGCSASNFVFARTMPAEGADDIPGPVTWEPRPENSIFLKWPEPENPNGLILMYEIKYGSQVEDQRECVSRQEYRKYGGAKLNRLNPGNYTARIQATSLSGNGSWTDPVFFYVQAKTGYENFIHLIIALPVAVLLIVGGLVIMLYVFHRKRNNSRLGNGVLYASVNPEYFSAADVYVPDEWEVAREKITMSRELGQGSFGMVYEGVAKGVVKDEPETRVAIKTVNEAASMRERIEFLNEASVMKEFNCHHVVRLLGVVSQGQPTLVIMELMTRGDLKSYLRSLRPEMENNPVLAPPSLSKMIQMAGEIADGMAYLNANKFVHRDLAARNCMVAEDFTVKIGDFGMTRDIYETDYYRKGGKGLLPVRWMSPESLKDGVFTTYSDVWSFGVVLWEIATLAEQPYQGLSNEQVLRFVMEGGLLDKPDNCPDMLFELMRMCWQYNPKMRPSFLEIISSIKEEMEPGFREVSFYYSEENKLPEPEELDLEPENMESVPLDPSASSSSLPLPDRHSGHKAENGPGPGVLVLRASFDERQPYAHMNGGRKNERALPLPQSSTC
Procedure for DBTRG cells: (§9) MTT assay protocol: Day 1: cells plated in 96-well plates. Day 2: chemical agents (DMSO) are added to the wells containing cells(in triplicate). Day 3: 100 μM of MTS reagent is added to each well; ager incubating the plates for an hour, readings are taken using a spectrometer.
Procedure for U-87 cells: as §9

As to `CNC(=O)c1ccccc1Nc1nc(Nc2ccc(N3CCOCC3)cc2OC)ncc1Cl` [TAE226], the “tumor growth in vivo” value in the data set on glioma and ovarian tumor is “inhibited glioma and ovarian tumor growth in vivo”. For the same compound, the IGFR kinase inhibition result at IGFR kinase is recorded as “inhibited IGFR kinase”. For the same compound, the Y397-FAK phosphorylation result on FAK [1] is “effectively blocked”.
In the case of `CN(C)CCN(Cc1ccc(Cl)cc1)c1ccccn1` [C4, N′-[(4-chlorophenyl)methyl]-N,N-dimethyl-N′-pyridin-2-yl-ethane-1,2-diamine], the figures for the “tumor growth reduction (tumor weight)” value in the data set on U87 cells (after 4 weeks of treatment) and in the data set on GL261 cells (after 3 weeks of treatment) were 71.7% and 57%, respectively. Also, the “tumor volume smaller in the treated group” value in the data set with U87 cells (after 4 weeks of treatment) is recorded as 58%. Besides, in the data set on U87 cells (after 9 days of treatment), the “size of treated tumors vs control group” value is listed as “significantly smaller”. The “weight of treated tumors vs control group” value with U87 cells (after 27 days of treatment) and in the data set with GL261 cells (after 23 days of treatment) was “significantly smaller” each time. The IC50 in the data set with DBTRG cells and in the data set on U-87 cells was 50 to 100 µM each time. For the same compound, in the data set on CD-1 mice (mouse, in vivo), the “clinical signs, low- and medium-dose groups” value was “slight ruffled fur”. Moreover, the “toxicity findings, high-dose group” value in the data set with CD-1 mice (mouse, in vivo, po, 300 mg/kg) was “weight loss, severe clinical signs of abdominal distention, and mortality due to gastrointestinal dilatation”. Also, the “mortality and body weight, low- and medium-dose groups” value in the data set on CD-1 mice (oral gavage daily days 0-6, 75 and 150 mg/kg) is given as “no mortality or decrement in mean body weight”. Moreover, the MTD at 7 days in [2] was not below 150 mg/kg. Besides, the FAK dephosphorylation result on FAK [3] is “specifically dephosphorylates FAK”.
As to `CS(=O)(=O)c1cccc(CNc2nc(Nc3ccc4c(c3)CCC(=O)N4)ncc2C(F)(F)F)c1` [PF-573,228], in data set [4], the “cell growth and survival in vitro” value was “did not inhibit cell growth and survival in vitro”; the cell motility result is reported as “inhibited only motility”.
